The test deals with AM2.2 cells FAP-GPR32, fluorogen binding, flow cytometry MCF. Kind of test: fluorogen binding to FAP-tagged GPR32, dose response, counter-screen for beta2AR agonist internalization project, human GPR32, AM2.2 cells, powder set 3 (AID 651853).
As usually defined, the EC50 is the midpoint of the concentration-response curve. Consider `COc1ccc(OC)c(CCNC(=O)C2CCN(c3nnc(-n4cccc4)s3)CC2)c1`, for which the EC50 was 1420 nM.

For the compound `CC(Oc1ccc(Cl)cc1Cl)c1nc(-c2ccc(NC(=O)c3ccco3)cc2)no1` (stereo not given), the EC50 is 230 nM.

Consider `CC(Sc1nc(-c2ccccc2)cc(C(F)(F)F)n1)C(=O)N1CCCCC1` (stereo not given), for which the EC50 is 10 nM.

Turning to `Cc1ccc(NC(=O)C(c2ccc(Cl)cc2)N2CCOCC2)cc1` (stereo not given), the 50% effective concentration (EC50) is 920 nM.

For the compound `CC(C)Cc1nc2sc3c(NCc4ccco4)ncnc3c2c2c1COC(C)(C)C2`, the EC50 was 20 nM.

For the compound `Cc1ccc(OCc2cc(C(=O)N(C)Cc3cnn(-c4ccccc4C)c3)no2)cn1`, the EC50 was 60 nM.

Take `Cn1c(N2CCN(c3ccccn3)CC2)nc2c1c(=O)n(Cc1ccc(Cl)cc1)c(=O)n2C`: the EC50 was 10 nM.

Take `CC(Oc1ccc(Cl)cc1Cl)c1nc(-c2ccc(NC(=O)c3ccccn3)cc2)no1` (stereo not given): the EC50 is 120 nM.

Take `C=CCn1c(CCNC(=O)c2cccs2)nnc1SCC(=O)c1ccc(Br)cc1`: the EC50 was 10 nM.

Consider `CN(Cc1ccccc1)S(=O)(=O)c1ccc(NS(=O)(=O)Cc2ccccc2)cc1`, for which the EC50 was 50 nM.

Consider `CC(=O)Nc1ccc(S(=O)(=O)N2CCC(Oc3ccc(-n4cnnn4)cc3)CC2)cc1`, for which the EC50 was 40 nM.

For `Cc1ccc(Cn2ccc(NC(=O)c3cc4nc(-c5ccco5)cc(C(F)(F)F)n4n3)n2)cc1`, the EC50 is 10 nM.

Turning to `Cc1ncc(CN2CCCC(C(=O)Nc3ccc(-c4cccc(F)c4)cc3)C2)s1` (stereo not given), the EC50 is 870 nM.

Regarding `Clc1cccc(-c2nnc(SCc3nc4ccccc4[nH]3)n2Cc2ccco2)c1`, the EC50 is 7180 nM.

Consider `CC(Sc1nc(-c2ccccc2)cc(C(F)(F)F)n1)C(=O)N1CCOCC1` (stereo not given), for which the EC50 is 20 nM.

For `O=C(c1cc2c(=O)n3ccccc3nc2s1)N1CCN(Cc2ccc3c(c2)OCO3)CC1`, the EC50 is 110 nM.

For `Clc1ccc(OCc2nnc(SCc3nc4ccccc4[nH]3)n2Cc2ccco2)cc1`, the EC50 is 10 nM.

Regarding `CSc1nc(SCCO)c2sc3nc(-c4ccco4)c4c(c3c2n1)CC(C)(C)OC4`, the half-maximal effective concentration (EC50) is 1810 nM.

On to `Cc1ccccc1N1CCN(c2ncnc3c2cnn3Cc2ccc(Cl)cc2)CC1`, for which the concentration for a half-maximal effect (EC50) was 2170 nM.

With `CC1(C)Cc2c(c(N3CCCC3)nc3sc4c(N5CCN(CCO)CC5)ncnc4c23)CO1`, the EC50 was 2560 nM.

The record behind these values is PubChem BioAssay AID651853 (NMMLSC, 2012).
